Data reported in US6403639B1, “2,3-dihydrobenzofuran derivatives” (Chugai Seiyaku Kabushiki Kaisha, priority 1997, dated 2002).
Like-named read-outs stand apart in the source and are kept apart here.

What was measured:
[1] = test system: porcine kidney-derived LLC-PK1 cells; assay: Protective effect against cell injury of porcine kidney-derived LLC-PK1 cells (2), oxidized LDL-induced LDH leakage; type: cell-based
Experimental: The oxidized LDL was prepared by placing 1 mg/ml of rabbit LDL in PBS (−) in the presence of 10 μM CuSO4 at 37° C. for 24 hours. Cell cultures were prepared by inoculating 1.25×10^4 cells/250 μl/well on a 48-well plate using M199 medium containing 3% FBS. Test compounds were dissolved or suspended in ethanol and added at a ratio of 1.25 μl/well 16 hours before or immediately before addition of the oxidized LDL to a concentration of 0.1, 1 or 10 μM in each well. The oxidized LDL was diluted twice with physiological saline and then added to cells at 62.5 μl/well to a concentration of 100 μg/ml and the cells were incubated for 6 hours after addition of the oxidized LDL. After the incubation, 162.5 μl of the culture medium was collected from each of the wells and measured for the lactate dehydrogenase (LDH) activity (Lactate Dehydrogenase (LD-L): SIGNA DIAGNOSTICS) which has leaked into the culture medium.
(§1) The cytoprotective effect was expressed as a % cytoprotection where the effect in wells containing the oxidized LDL but without any test compound is 0% and the effect in wells containing physiological saline in place of the oxidized LDL is 100%.
For the purpose of evaluating in vitro cytoprotective effect of the compounds of the present invention, protective effect against cell injury of porcine kidney-derived LLC-PK1 cells (ATCC-CRL-13921) induced by oxidized low-density lipoprotein (oxidized LDL) was examined in the same manner as in Test example 1.
Preparation of oxidized LDL and conditions for cell culture and addition of test compounds were the same as those in Test example 1, except that the oxidized LDL was not diluted with physiological saline and added to cells at 25 μl/well to a concentration of 91 μg/ml and the cells were incubated for 6 hours after addition of oxidized LDL. After the incubation, 150 μl of the culture medium was collected from each of the wells and measured for the lactate dehydrogenase (LDH) activity (Lactate Dehydrogenase (LD-L): SIGMA DIAGNOSTICS) which has leaked in the culture medium.

cultured mesangial cells = assay: Protective effect against cell injury of cultured mesangial cells, oxidized LDL-induced LDH leakage; type: cell-based, rats
Experimental: For the purpose of evaluating in vitro cytoprotective effect of the compounds of the present invention, protective effect against cell injury of cultured mesangial cells induced by oxidized low-density lipoprotein (LDL) was examined. The cells used were subcultures after 4 to 6 passages of the primary cultures of mesangial cells prepared from kidney of 4-week-old SD-strain male rats (Nippon Charles River Corp.).
The oxidized LDL was prepared by placing 1 mg/ml of rabbit LDL in PBS (−) in the presence of 10 μM CuSO4 at 37° C. for 24 hours. Cell cultures were prepared by inoculating 2.5×10^4 cells/250 μl/well on a 48-well plate using RPMI1640 medium containing 20% FBS. Immediately before addition of test compounds, the medium was replaced with RPMI1640 free from FBS. Test compounds were dissolved or suspended in ethanol and added at 1.25 μl/well 16 hours before or immediately before addition of the oxidized LDL to a concentration of 1, 3 or 10 μM in each well. Unlike Test example 1, the oxidized LDL was not diluted with physiological saline and added to cells at 25 μl/well to a concentration of 91 μg/ml and the cells were incubated for 8 hours after addition of the oxidized LDL. After the incubation, 150 μl of the culture medium was collected from each of the wells and measured for the lactate dehydrogenase activity (Lactate Dehydrogenase (LD-L): SIGMA DIAGNOSTICS) which has leaked in the culture medium.
as §1

[2] = Sus scrofa, LLC-PK1; 0.1 μM; test compounds added 16 hours before addition of oxidized LDL; oxidized LDL 91 μg/ml, 6 hours; read-out: % cytoprotection 1)
[3] = Sus scrofa, LLC-PK1; 0.1 μM; test compounds added immediately before addition of oxidized LDL; oxidized LDL 91 μg/ml, 6 hours; read-out: % cytoprotection 2)
[4] = Sus scrofa, LLC-PK1; 1 μM; test compounds added 16 hours before addition of oxidized LDL; oxidized LDL 91 μg/ml, 6 hours; read-out: % cytoprotection 1)
[5] = Sus scrofa, LLC-PK1; 1 μM; test compounds added immediately before addition of oxidized LDL; oxidized LDL 91 μg/ml, 6 hours; read-out: % cytoprotection 2)
[6] = Sus scrofa, LLC-PK1; 10 μM; test compounds added 16 hours before addition of oxidized LDL; oxidized LDL 91 μg/ml, 6 hours; read-out: % cytoprotection 1)
[7] = Sus scrofa, LLC-PK1; 10 μM; test compounds added immediately before addition of oxidized LDL; oxidized LDL 91 μg/ml, 6 hours; read-out: % cytoprotection 2)
[8] = Rattus norvegicus, Mesangial cell; 1 μM; test compounds added 16 hours before addition of oxidized LDL; oxidized LDL 91 μg/ml, 8 hours; read-out: % cytoprotection 1)
[9] = Rattus norvegicus, Mesangial cell; 1 μM; test compounds added immediately before addition of oxidized LDL; oxidized LDL 91 μg/ml, 8 hours; read-out: % cytoprotection 2)
[10] = Rattus norvegicus, Mesangial cell; 3 μM; test compounds added 16 hours before addition of oxidized LDL; oxidized LDL 91 μg/ml, 8 hours; read-out: % cytoprotection 1)
[11] = Rattus norvegicus, Mesangial cell; 3 μM; test compounds added immediately before addition of oxidized LDL; oxidized LDL 91 μg/ml, 8 hours; read-out: % cytoprotection 2)

Cc1c(O)c(C(C)(C)C)cc2c1CC1(CCCCCC1)O2 [Example 14-(1), 6-t-Butyl-5-hydroxy-4-methyl-2,3-dihydrobenzofuran-2-spiro-1′-cycloheptane]
inhibition at 0.1 µM [1, 2]: -6.5% | inhibition at 0.1 µM [1, 3]: -9.2% | inhibition at 1 µM [1, 4]: 103% | inhibition at 1 µM [1, 5]: 101% | inhibition at 10 µM [1, 6]: 104% | inhibition at 10 µM [1, 7]: 103% | inhibition at 1 µM (cultured mesangial cells; [8]): 19.7 ± 7.7% | inhibition at 1 µM (cultured mesangial cells; [9]): 34.4 ± 1.5% | inhibition at 3 µM (cultured mesangial cells; [10]): 59.3 ± 2.1% | inhibition at 3 µM (cultured mesangial cells; [11]): 43.2 ± 2.8%

Cc1c(O)c(C(C)(C)C)cc2c1CC(C)(C)O2 [Example 19, 6-t-Butyl-5-hydroxy-2,2,4-trimethyl-2,3-dihydrobenzofuran]
inhibition at 0.1 µM [1, 2]: 31.1% | inhibition at 0.1 µM [1, 3]: 13.2% | inhibition at 1 µM [1, 4]: 104% | inhibition at 1 µM [1, 5]: 102% | inhibition at 10 µM [1, 6]: 102% | inhibition at 10 µM [1, 7]: 102%

C=CC(C)c1c(O)c(C(C)(C)C)cc2c1CC1(CCCCCC1)O2 (centres unmarked) [Example 12, 6-t-Butyl-5-hydroxy-4-(1-methyl-2-propenyl)-2,3-dihydrobenzofuran-2-spiro-1′-cycloheptane]
inhibition at 0.1 µM [1, 2]: -15.5% | inhibition at 0.1 µM [1, 3]: -8.4% | inhibition at 1 µM [1, 4]: 77.9% | inhibition at 1 µM [1, 5]: 79.4% | inhibition at 10 µM [1, 6]: 102% | inhibition at 10 µM [1, 7]: 102% | inhibition at 1 µM (cultured mesangial cells; [8]): 11.8 ± 2.6% | inhibition at 1 µM (cultured mesangial cells; [9]): 17.4 ± 4% | inhibition at 3 µM (cultured mesangial cells; [10]): 37.9 ± 8.3% | inhibition at 3 µM (cultured mesangial cells; [11]): 42.8 ± 3.7%

CCC1(CC)Cc2c(cc(C(C)C)c(O)c2C(C)C)O1 [Example 17, 2,2-Diethyl-5-hydroxy-4,6-diisopropyl-2,3-dihydrobenzofuran]
inhibition at 0.1 µM [1, 2]: 40.5% | inhibition at 0.1 µM [1, 3]: 22.1% | inhibition at 1 µM [1, 4]: 99.9% | inhibition at 1 µM [1, 5]: 101% | inhibition at 10 µM [1, 6]: 99.9% | inhibition at 10 µM [1, 7]: 98.4%

CC(C)c1c(O)c(C(C)(C)C)cc2c1CC(C)(C)O2 [Example 20-(1), 6-t-Butyl-5-hydroxy-2,2-dimethyl-4-isopropyl-2,3-dihydrobenzofuran]
inhibition at 0.1 µM [1, 2]: -4.8% | inhibition at 0.1 µM [1, 3]: -24% | inhibition at 1 µM [1, 4]: 100% | inhibition at 1 µM [1, 5]: 100% | inhibition at 10 µM [1, 6]: 104% | inhibition at 10 µM [1, 7]: 100%

CCCc1c(O)c(C(C)(C)C)cc2c1CC1(CCCCCC1)O2 [Example 9, 6-t-Butyl-5-hydroxy-4-n-propyl-2,3-dihydrobenzofuran-2-spiro-1′-cycloheptane]
inhibition at 0.1 µM [1, 2]: 12.9% | inhibition at 0.1 µM [1, 3]: 11.5% | inhibition at 1 µM [1, 4]: 47.7% | inhibition at 1 µM [1, 5]: 58.9% | inhibition at 10 µM [1, 6]: 104% | inhibition at 10 µM [1, 7]: 104% | inhibition at 1 µM (cultured mesangial cells; [8]): 14.4 ± 5.1% | inhibition at 1 µM (cultured mesangial cells; [9]): 29.6 ± 2% | inhibition at 3 µM (cultured mesangial cells; [10]): 56.2 ± 9.3% | inhibition at 3 µM (cultured mesangial cells; [11]): 46.3 ± 1.7%

CCc1c(O)c(C(C)(C)C)cc2c1CC1(CCCCCC1)O2 [Example 14-(2), 6-t-Butyl-4-ethyl-5-hydroxy-2,3-dihydrobenzofuran-2-spiro-1′-cycloheptane]
inhibition at 0.1 µM [1, 2]: -14.3% | inhibition at 0.1 µM [1, 3]: -13.9% | inhibition at 1 µM [1, 4]: 103% | inhibition at 1 µM [1, 5]: 99.4% | inhibition at 10 µM [1, 6]: 104% | inhibition at 10 µM [1, 7]: 105% | inhibition at 1 µM (cultured mesangial cells; [8]): 6.6 ± 8.4% | inhibition at 1 µM (cultured mesangial cells; [9]): 23.1 ± 1.2% | inhibition at 3 µM (cultured mesangial cells; [10]): 52.7 ± 14.3% | inhibition at 3 µM (cultured mesangial cells; [11]): 45.6 ± 1.8%

CC(C)c1cc2c(c(C(C)(C)C)c1O)CC(C)(C)O2 [Example 20-(2), 4-t-Butyl-5-hydroxy-2,2-dimethyl-6-isopropyl-2,3-dihydrobenzofuran]
inhibition at 0.1 µM [1, 2]: 95.3% | inhibition at 0.1 µM [1, 3]: 61.9% | inhibition at 1 µM [1, 4]: 98.1% | inhibition at 1 µM [1, 5]: 97.8% | inhibition at 10 µM [1, 6]: 97.3% | inhibition at 10 µM [1, 7]: 99.1%

CC(C)c1cc2c(c(C(C)C)c1O)CC(C)(C)O2 [Example 18, 5-Hydroxy-2,2-dimethyl-4,6-diisopropyl-2,3-dihydrobenzofuran]
inhibition at 0.1 µM [1, 2]: 12.1% | inhibition at 0.1 µM [1, 3]: -1.9% | inhibition at 1 µM [1, 4]: 100% | inhibition at 1 µM [1, 5]: 99.7% | inhibition at 10 µM [1, 6]: 100% | inhibition at 10 µM [1, 7]: 101%

CC(C)(C)c1cc2c(cc1O)CCO2 [Example 15, 6-t-Butyl-5-hydroxy-2,3-dihydrobenzofuran]
inhibition at 1 µM (cultured mesangial cells; [8]): -4 ± 3.5% | inhibition at 1 µM (cultured mesangial cells; [9]): -14.6 ± 3.3% | inhibition at 3 µM (cultured mesangial cells; [10]): 33.6 ± 11.5% | inhibition at 3 µM (cultured mesangial cells; [11]): 5.4 ± 5.1%
